Converted amounts (≈) assume the structure as drawn.
Assays:
Type in all cases: functional
Staphylococcus aureus [1] = experiment: Antibacterial activity against Staphylococcus aureus ATCC 25923 by microbroth dilution method
Staphylococcus aureus [2] = experiment: Antibacterial activity against Staphylococcus aureus ATCC 29213 by microbroth dilution method
Staphylococcus aureus [3] = experiment: Antibacterial activity against drug-resistant Staphylococcus aureus by microbroth dilution method
Staphylococcus aureus [4] = experiment: Antibacterial activity against methicillin-resistant Staphylococcus aureus N315 by microbroth dilution method
Enterococcus faecalis = experiment: Antibacterial activity against drug-resistant Enterococcus faecalis by microbroth dilution method
Candida albicans [5] = experiment: Antifungal activity against Candida albicans ATCC 90023
Candida albicans [6] = experiment: Antifungal activity against drug-resistant Candida albicans
Candida parapsilosis = experiment: Antifungal activity against Candida parapsilosis ATCC 22019; conditions: Lodderomyces parapsilosis
Candida tropicalis = experiment: Antifungal activity against drug-resistant Candida tropicalis
Aspergillus fumigatus = experiment: Antifungal activity against Aspergillus fumigatus
Escherichia coli [7] = experiment: Antibacterial activity against Escherichia coli ATCC 25922 by microbroth dilution method
Pseudomonas aeruginosa [8] = experiment: Antibacterial activity against Pseudomonas aeruginosa ATCC 27853 by microbroth dilution method
Escherichia coli [9] = experiment: Antibacterial activity against drug-resistant Escherichia coli by microbroth dilution method
Pseudomonas aeruginosa [10] = experiment: Antibacterial activity against Pseudomonas aeruginosa by microbroth dilution method
Klebsiella pneumoniae = experiment: Antibacterial activity against Klebsiella pneumoniae by microbroth dilution method
Acinetobacter baumannii = experiment: Antibacterial activity against Acinetobacter baumannii by microbroth dilution method

Row | Structure (SMILES) | MIC (Staphylococcus aureus [1]) [µM] | MIC (Staphylococcus aureus [2]) [µM] | MIC (Staphylococcus aureus [3]) [µM] | MIC (Staphylococcus aureus [4]) [µM] | MIC (Enterococcus faecalis) [µM] | MIC (Candida albicans [5]) [µM] | MIC (Candida albicans [6]) [µM] | MIC (Candida parapsilosis) [µM] | MIC (Candida tropicalis) [µM] | MIC (Aspergillus fumigatus) [µM] | MIC (Escherichia coli [7]) [µM] | MIC (Pseudomonas aeruginosa [8]) [µM] | MIC (Escherichia coli [9]) [µM] | MIC (Pseudomonas aeruginosa [10]) [µM] | MIC (Klebsiella pneumoniae) [µM] | MIC (Acinetobacter baumannii) [µM]
1 | Cc1nc(-c2c[nH]c3ccc(F)cc3c2=O)cs1 | 1970 (≈ 513 µg/mL) | 985 (≈ 256 µg/mL) | 1970 (≈ 513 µg/mL) | 1970 (≈ 513 µg/mL) | 985 (≈ 256 µg/mL) | 492 (≈ 128 µg/mL) | 985 (≈ 256 µg/mL) | 492 (≈ 128 µg/mL) | 985 (≈ 256 µg/mL) | 985 (≈ 256 µg/mL) | 492 (≈ 128 µg/mL) | 492 (≈ 128 µg/mL) | 1970 (≈ 513 µg/mL) | 985 (≈ 256 µg/mL) | 1970 (≈ 513 µg/mL) | 492 (≈ 128 µg/mL)
2 | CC(=O)Cn1cc(-c2csc(C)n2)c(=O)c2cc(F)c(F)cc21 | 766 (≈ 256 µg/mL) | 766 (≈ 256 µg/mL) | 766 (≈ 256 µg/mL) | 1530 (≈ 513 µg/mL) | 1530 (≈ 513 µg/mL) | 766 (≈ 256 µg/mL) | 1530 (≈ 513 µg/mL) | 1530 (≈ 513 µg/mL) | 766 (≈ 256 µg/mL) | 766 (≈ 256 µg/mL) | 1530 (≈ 513 µg/mL) | 1530 (≈ 513 µg/mL) | 1530 (≈ 513 µg/mL) | 1530 (≈ 513 µg/mL) | 766 (≈ 256 µg/mL) | 1530 (≈ 513 µg/mL)
3 | CC(=O)Cn1cc(C(C)=O)c(=O)c2cc(F)c(Cl)cc21 | 868 (≈ 257 µg/mL) | 1740 (≈ 513 µg/mL) | 1740 (≈ 513 µg/mL) | 868 (≈ 257 µg/mL) | 868 (≈ 257 µg/mL) | 868 (≈ 257 µg/mL) | 1740 (≈ 513 µg/mL) | 217 (≈ 64.2 µg/mL) | 1740 (≈ 513 µg/mL) | 868 (≈ 257 µg/mL) | 868 (≈ 257 µg/mL) | 434 (≈ 128 µg/mL) | 868 (≈ 257 µg/mL) | 434 (≈ 128 µg/mL) | 868 (≈ 257 µg/mL) | 868 (≈ 257 µg/mL)
4 | C/C(Cn1cc(-c2csc(C)n2)c(=O)c2cc(F)ccc21)=N\NC(N)=S | 658 (≈ 256 µg/mL) | 658 (≈ 256 µg/mL) | 658 (≈ 256 µg/mL) | 658 (≈ 256 µg/mL) | 1320 (≈ 513 µg/mL) | 658 (≈ 256 µg/mL) | 658 (≈ 256 µg/mL) | 329 (≈ 128 µg/mL) | 1320 (≈ 513 µg/mL) | 658 (≈ 256 µg/mL) | 658 (≈ 256 µg/mL) | 658 (≈ 256 µg/mL) | 658 (≈ 256 µg/mL) | 658 (≈ 256 µg/mL) | 165 (≈ 64.3 µg/mL) | 658 (≈ 256 µg/mL)
5 | C/C(Cn1cc(-c2csc(C)n2)c(=O)c2cc(F)c(Cl)cc21)=N\NC(N)=S | 605 (≈ 256 µg/mL) | 605 (≈ 256 µg/mL) | 605 (≈ 256 µg/mL) | 605 (≈ 256 µg/mL) | 605 (≈ 256 µg/mL) | 605 (≈ 256 µg/mL) | 605 (≈ 256 µg/mL) | 605 (≈ 256 µg/mL) | 303 (≈ 128 µg/mL) | 1210 (≈ 513 µg/mL) | 605 (≈ 256 µg/mL) | 303 (≈ 128 µg/mL) | 605 (≈ 256 µg/mL) | 605 (≈ 256 µg/mL) | 605 (≈ 256 µg/mL) | 605 (≈ 256 µg/mL)
6 | CC(=O)Cn1cc(-c2csc(C)n2)c(=O)c2cc(F)ccc21 | 1620 (≈ 512 µg/mL) | 405 (≈ 128 µg/mL) | 1620 (≈ 512 µg/mL) | 1620 (≈ 512 µg/mL) | 1620 (≈ 512 µg/mL) | 405 (≈ 128 µg/mL) | 810 (≈ 256 µg/mL) | 1620 (≈ 512 µg/mL) | 810 (≈ 256 µg/mL) | 810 (≈ 256 µg/mL) | 1620 (≈ 512 µg/mL) | 810 (≈ 256 µg/mL) | 1620 (≈ 512 µg/mL) | 810 (≈ 256 µg/mL) | 810 (≈ 256 µg/mL) | 1620 (≈ 512 µg/mL)
7 | CC(=O)Cn1cc(-c2csc(C)n2)c(=O)c2cccc(F)c21 | 405 (≈ 128 µg/mL) | 810 (≈ 256 µg/mL) | 810 (≈ 256 µg/mL) | 810 (≈ 256 µg/mL) | 810 (≈ 256 µg/mL) | 810 (≈ 256 µg/mL) | 810 (≈ 256 µg/mL) | 405 (≈ 128 µg/mL) | 405 (≈ 128 µg/mL) | 1620 (≈ 512 µg/mL) | 810 (≈ 256 µg/mL) | 405 (≈ 128 µg/mL) | 810 (≈ 256 µg/mL) | 1620 (≈ 512 µg/mL) | 1620 (≈ 512 µg/mL) | 405 (≈ 128 µg/mL)
8 | C/C(Cn1cc(-c2csc(N)n2)c(=O)c2cc(F)cc(F)c21)=N\NC(N)=S | 157 (≈ 64.1 µg/mL) | 78 (≈ 31.9 µg/mL) | 78 (≈ 31.9 µg/mL) | 314 (≈ 128 µg/mL) | 1260 (≈ 513 µg/mL) | 627 (≈ 256 µg/mL) | 627 (≈ 256 µg/mL) | 314 (≈ 128 µg/mL) | 627 (≈ 256 µg/mL) | 1260 (≈ 513 µg/mL) | 1260 (≈ 513 µg/mL) | 627 (≈ 256 µg/mL) | 1260 (≈ 513 µg/mL) | 627 (≈ 256 µg/mL) | 627 (≈ 256 µg/mL) | 627 (≈ 256 µg/mL)
9 | Nc1nc(-c2c[nH]c3cc(F)c(F)cc3c2=O)cs1 | 459 (≈ 128 µg/mL) | 459 (≈ 128 µg/mL) | 459 (≈ 128 µg/mL) | 459 (≈ 128 µg/mL) | 918 (≈ 256 µg/mL) | 229 (≈ 64 µg/mL) | 229 (≈ 64 µg/mL) | 459 (≈ 128 µg/mL) | 459 (≈ 128 µg/mL) | 229 (≈ 64 µg/mL) | 459 (≈ 128 µg/mL) | 459 (≈ 128 µg/mL) | 459 (≈ 128 µg/mL) | 459 (≈ 128 µg/mL) | 918 (≈ 256 µg/mL) | 918 (≈ 256 µg/mL)
10 | Nc1nc(-c2c[nH]c3c(F)cccc3c2=O)cs1 | 981 (≈ 256 µg/mL) | 981 (≈ 256 µg/mL) | 981 (≈ 256 µg/mL) | 981 (≈ 256 µg/mL) | 490 (≈ 128 µg/mL) | 490 (≈ 128 µg/mL) | 981 (≈ 256 µg/mL) | 245 (≈ 64 µg/mL) | 981 (≈ 256 µg/mL) | 490 (≈ 128 µg/mL) | 981 (≈ 256 µg/mL) | 981 (≈ 256 µg/mL) | 981 (≈ 256 µg/mL) | 981 (≈ 256 µg/mL) | 981 (≈ 256 µg/mL) | 490 (≈ 128 µg/mL)
11 | OC(Cn1cncn1)(Cn1cncn1)c1ccc(F)cc1F [FLUCONAZOLE] |  |  |  |  |  | 3 (≈ 0.919 µg/mL) | 13 (≈ 3.98 µg/mL) | 6 (≈ 1.84 µg/mL) | 25 (≈ 7.66 µg/mL) | 802 (≈ 246 µg/mL) |  |  |  |  |  | 

From ChEMBL document CHEMBL5584255, “Synthesis and antibacterial medicinal evaluation of carbothioamido hydrazonyl thiazolylquinolone with multitargeting antimicrobial potential to combat increasingly global resistance” (Eur J Med Chem, 2024)
